Source: patent US20210238225A1, “PEPTIDOMIMETIC INHIBITORS OF THE PEPTIDYL-PROLYL CIS/TRANS ISOMERASE (PIN1)” (DANA-FARBER CANCER INSTITUTE, INC., priority 2018, published 2021)
Entries after “also recorded” stand apart in the source; their conditions may differ. Where two headings read alike, the source gives them in different places. Non-standard residues stand in square brackets, D forms with d. Residues, ends and D or L forms follow the SMILES beside them. *: point of attachment. Biotinyl(3aR,4R,6aS) = O=C1N[C@@H]2[C@@H](CS[C@@H]2CCCCC(=O)*)N1; Ala(4-thiazolyl) = N[C@@H](Cc1cscn1)C(=O)O; Phe(4-F) = N[C@@H](Cc1ccc(F)cc1)C(=O)O; 2Nal = N[C@@H](Cc1ccc2ccccc2c1)C(=O)O; NH(4-Me-benzyl) = Cc1ccc(CN*)cc1; NMeF = CN[C@@H](Cc1ccccc1)C(=O)O; Cit = NC(=O)NCCC[C@H](N)C(=O)O; Pip = O=C(O)[C@@H]1CCCCN1; NHcBu = C1CC(N*)C1; NHtBu = CC(C)(C)N*; ClAc = O=C(CCl)*; NHcPr = C1CC1N*

Key:
Pin1 (GST-Pin1) = Pin1 (GST-Pin1) (Homo sapiens, UniProt Q13526); assay: Fluorescence polarization (FP) assay, binding to Pin1
Pin1 [1] = target: T1, Pin1 (Homo sapiens, UniProt Q13526); assay: Cellular target engagement, live cell biotin competition assay in TNBC MDA-MB-231 cells; format: cell-based; design: endogenous in cells; host or cells: MDA-MB-231; settings: TNBC MDA-MB-231 cells; for Cellular Target Engagement?: 5 hours treatment, concentration under E7; for Cellular Target Engagement? concentration stated for complete engagement: read with the E6 line
Experimental: TNBC MDA-MB-231 cells were plated in 10 cm plates with 2.5 million cells per plate in 6 mL of media. The day after plating, cells were treated with the indicated concentrations of compound 18 for 5 hours. The cells were washed 2× with 0.9% NaCl (1 mL per 10 cm plate), and collected by scraping with a cell scraper. Cells were lysed in lysis buffer (50 mM Hepes pH 7.5, 150 mM NaCl, 1 mM EDTA, 10% v/v glycerol, 0.5% v/v […], protease inhibitors (Roche)) using 210 μL of cell lysis buffer per 10 cm plate of cells. After clarifying by centrifugation (14,000 rpm for 15 min at 4° C.), 5 μL of each lysate sample was combined with 5 μL of 2× LDS+10% β-mercaptoethanol, boiled for 5 minutes, and set aside for the input loading control (later to be loaded directly in the gel). Then, 200 μL of each lysate was then incubated with 1 μM of compound 2-32 (biotin probe compound) for 1 hour at 4° C. Lysates were then incubated with streptavidin agarose resin (30 μL of 1:1 beads: lysis buffer slurry) (Thermo Scientific™, cat. #20349) for 2 hours at 4° C. Beads were washed 4 times with 500 μL of washing buffer (50 mM Hepes, pH7.5, 10 mM NaCl, 1 mM EDTA, 10% glycerol), then pelleted by centrifugation and dried. The beads were then boiled at 95° C. for 5 minutes in 30 μL of 2× LDS+10% β-mercaptoethanol. Lysates were probed for specified proteins by western blotting using the Bolt system (Life Technologies™).

Pin1 [2] = target: T1, Pin1; assay: Lysate target engagement (pull down with biotinylated probes; competition assay); format: binding; design: endogenous in cells; host or cells: MDA-MB-231
Experimental: (§1) TNBC-MDA-MB-231 cells were lysed in lysis buffer (50 mM Hepes pH 7.5, 150 mM NaCl, 1 mM ethylenediaminetetraacetic acid (EDTA), 10% v/v glycerol, 0.5% v/v NP-40, protease inhibitors (Roche)). After clarifying by centrifugation (14,000 rpm for 15 min at 4° C.), lysates were incubated with the indicated concentrations of candidate compound for 1 hour at 4° C. (500 μg of protein per sample, as determined by BCA). Lysates were then incubated with streptavidin agarose resin (30 μL of 1:1 beads: lysis buffer slurry) (Thermo Scientific™, cat. #20349) for 2 hours at 4° C. Beads were washed 4 times with 500 μL of washing buffer (50 mM Hepes, pH 7.5, 10 mM NaCl, 1 mM EDTA, 10% glycerol), then pelleted by centrifugation and dried. The beads were then boiled at 95° C. for 5 minutes in 30 μL of 2× LDS+10% β-mercaptoethanol. Lysates were probed for specified proteins by western blotting using the Bolt system (Life Technologies™).
as §1, with “mM EDTA,” for “mM ethylenediaminetetraacetic acid (EDTA),”, “by centrifugation,” for “by centrifugation (14,000 rpm for 15 min at 4° C.),”, “were pre-incubated” for “were incubated”, “of” for “of candidate”, “compound 18 overnight” for “compound for 1 hour”, “BCA). The lysates were then incubated with 1 μM of compound 2c (desthiobiotin probe) for 1 hour at 4° C.” for “BCA).”

[3] = Ki, μM (FP Assay), competition with fluorescein-labeled peptide probe, 12 hours pre-incubation at 4° C., Kenakin Ki equation
[4] = competition with fluorescein-labeled peptide probe, 12 hours pre-incubation at 4° C., Kenakin Ki equation, read-out: Ki, μM (FP Assay)

T1 sequence (Q13526 whole entry): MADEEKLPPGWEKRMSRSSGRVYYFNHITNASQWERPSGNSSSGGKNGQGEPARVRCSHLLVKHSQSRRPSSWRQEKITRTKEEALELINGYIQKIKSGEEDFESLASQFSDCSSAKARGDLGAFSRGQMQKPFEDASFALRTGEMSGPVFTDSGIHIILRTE
Chain of Pin1 (GST-Pin1) (Q13526 whole entry): as above

Compound	Ki (Pin1 (GST-Pin1); [3]) [µM]	Cellular Target Engagement? (Pin1 [1])	Ki (Pin1 (GST-Pin1); [4]) [µM]	other results
COC(=O)CC[C@H](NC(=O)CCl)C(=O)N1CCCC[C@H]1C(=O)N[C@@H](Cc1c[nH]c2ccccc12)C(=O)N[C@@H](Cc1ccc(F)cc1)C(=O)NCc1ccc(C)cc1 [Compound 11-3, Methyl (S)-4-(2-chloroacetamido)-5-((S)-2-(((S)-1-(((S)-3-(4-fluorophenyl)-1-((4-methylbenzyl)amino)-1-oxopropan-2-yl)amino)-3-(1H-indol-3-yl)-1-oxopropan-2-yl)carbamoyl)piperidin-1-yl)-5-oxopentanoate] (ClAc-E(OMe)[Pip]W[Phe(4-F)]-{NH(4-Me-benzyl)})	0.19	Yes-Complete	–	Cellular Target Engagement? concentration stated for complete engagement (Pin1 [1]): at 15 μM
Cc1ccc(CNC(=O)[C@H](CCCNC(N)=O)NC(=O)[C@H](Cc2c[nH]c3ccccc23)NC(=O)[C@@H]2CCCCN2C(=O)[C@H](Cc2ccccc2)N(C)C(=O)CCl)cc1 [Compound 11, (S)—N—((S)-3-(1H-indol-3-yl)-1-(((S)-1-((4-methylbenzyl)amino)-1-oxo-5-ureidopentan-2-yl)amino)-1-oxopropan-2-yl)-1-(N-(2-chloroacetyl)-N-methyl-L-phenylalanyl)piperidine-2-carboxamide] (ClAc-[NMeF][Pip]W[Cit]-{NH(4-Me-benzyl)})	–	Yes-	0.01	Cellular Target Engagement? concentration stated for complete engagement (Pin1 [1]): at 5 μM
COC(=O)CC[C@H](NC(=O)CCl)C(=O)N1CCCC[C@H]1C(=O)N[C@@H](Cc1c[nH]c2ccccc12)C(=O)N[C@@H](Cc1ccc(F)cc1)C(=O)NC1CCC1 [Compound 11-19, Methyl (S)-4-(2-chloroacetamido)-5-((S)-2-(((S)-1-(((S)-1-(cyclobutylamino)-3-(4-fluorophenyl)-1-oxopropan-2-yl)amino)-3-(1H-indol-3-yl)-1-oxopropan-2-yl)carbamoyl)piperidin-1-yl)-5-oxopentanoate] (ClAc-E(OMe)[Pip]W[Phe(4-F)]-NHcBu)	0.146	No	–	–
COC(=O)CC[C@H](NC(=O)CCl)C(=O)N1CCCC[C@H]1C(=O)N[C@@H](Cc1c[nH]c2ccccc12)C(=O)N[C@@H](CCCNC(N)=O)C(=O)NCc1ccc(C)cc1 [Compound 11-4, Methyl (S)-5-((S)-2-(((S)-3-(1H-indol-3-yl)-1-(((S)-1-((4-methylbenzyl)amino)-1-oxo-5-ureidopentan-2-yl)amino)-1-oxopropan-2-yl)carbamoyl)piperidin-1-yl)-4-(2-chloroacetamido)-5-oxopentanoate] (ClAc-E(OMe)[Pip]W[Cit]-{NH(4-Me-benzyl)})	0.03	No	–	–
NC(=O)[C@H](Cc1ccc(O)cc1)NC(=O)[C@H](Cc1ccc2ccccc2c1)NC(=O)[C@@H]1CCCCN1C(=O)[C@H](CCC(=O)O)NC(=O)CCl [Compound 2-6, (S)-5-((S)-2-(((S)-1-(((S)-1-Amino-3-(4-hydroxyphenyl)-1-oxopropan-2-yl)amino)-3-(naphthalen-2-yl)-1-oxopropan-2-yl)carbamoyl)piperidin-1-yl)-4-(2-chloroacetamido)-5-oxopentanoic acid] (ClAc-E[Pip][2Nal]Y-NH2)	–	No	0.28	–
COC(=O)CC[C@H](NC(=O)CCl)C(=O)N1CCCC[C@H]1C(=O)N[C@@H](Cc1c[nH]c2ccccc12)C(=O)N[C@@H](Cc1cscn1)C(=O)NCc1ccc(C)cc1 [Compound 11-28, Methyl (S)-5-((S)-2-(((S)-3-(1H-indol-3-yl)-1-(((S)-1-((4-methylbenzyl)amino)-1-oxo-3-(thiazol-4-yl)propan-2-yl)amino)-1-oxopropan-2-yl)carbamoyl)piperidin-1-yl)-4-(2-chloroacetamido)-5-oxopentanoate] (ClAc-E(OMe)[Pip]W[Ala(4-thiazolyl)]-{NH(4-Me-benzyl)})	0.099	No	–	–
CCOC(=O)[C@H](CCCNC(N)=O)NC(=O)[C@H](Cc1c[nH]c2ccccc12)NC(=O)[C@@H]1CCCCN1C(=O)[C@H](Cc1ccccc1)N(C)C(C)=O [Compound 18-1, Ethyl (S)-2-((S)-2-((S)-1-(N-acetyl-N-methyl-L-phenylalanyl)piperidine-2-carboxamido)-3-(1H-indol-3-yl)propanamido)-5-ureidopentanoate] (Ac-[NMeF][Pip]W[Cit]-OEt)	–	No	1.9	–
Cc1ccc(CNC(=O)[C@H](Cc2ccc(F)cc2)NC(=O)[C@H](Cc2c[nH]c3ccccc23)NC(=O)[C@@H]2CCCCN2C(=O)[C@H](CCC(=O)O)NC(=O)CCl)cc1 [Compound 11-5, (S)-4-(2-chloroacetamido)-5-((S)-2-(((S)-1-(((S)-3-(4-fluorophenyl)-1-((4-methylbenzyl)amino)-1-oxopropan-2-yl)amino)-3-(1H-indol-3-yl)-1-oxopropan-2-yl)carbamoyl)piperidin-1-yl)-5-oxopentanoic acid] (ClAc-E[Pip]W[Phe(4-F)]-{NH(4-Me-benzyl)})	–	No	0.13	–
COC(=O)CC[C@H](NC(=O)CCl)C(=O)N1CCCC[C@H]1C(=O)N[C@@H](Cc1c[nH]c2ccccc12)C(=O)N[C@@H](Cc1ccc(F)cc1)C(=O)NC(C)(C)C [Compound 11-18, Methyl (S)-5-((S)-2-(((S)-1-(((S)-1-(tert-butylamino)-3-(4-fluorophenyl)-1-oxopropan-2-yl)amino)-3-(1H-indol-3-yl)-1-oxopropan-2-yl)carbamoyl)piperidin-1-yl)-4-(2-chloroacetamido)-5-oxopentanoate] (ClAc-E(OMe)[Pip]W[Phe(4-F)]-NHtBu)	0.134	No	–	–
NC(=O)NCCC[C@H](NC(=O)[C@H](Cc1c[nH]c2ccccc12)NC(=O)[C@@H]1CCCCN1C(=O)[C@H](Cc1ccccc1)NC(=O)CCl)C(=O)NC1CC1 [Compound 11-38, (S)-1-((2-chloroacetyl)-L-phenylalanyl)-N—((S)-1-(((S)-1-(cyclopropylamino)-1-oxo-5-ureidopentan-2-yl)amino)-3-(1H-indol-3-yl)-1-oxopropan-2-yl)piperidine-2-carboxamide] (ClAc-F[Pip]W[Cit]-NHcPr)	–	No	0.018	–
CN(C(=O)CCl)[C@@H](Cc1ccccc1)C(=O)N1CCCC[C@H]1C(=O)N[C@@H](Cc1c[nH]c2ccccc12)C(=O)N[C@@H](CCCNC(N)=O)C(=O)N[C@@H](CCCCNC(=O)CCCC[C@H]1SC[C@H]2NC(=O)N[C@H]21)C(N)=O [Compound 2-32, (S)—N—((S)-1-(((S)-1-(((S)-1-Amino-1-oxo-6-(5-((3aR,4R,6aS)-2-oxohexahydro-1H-thieno[3,4-d]imidazol-4-yl)pentanamido)hexan-2-yl)amino)-1-oxo-5-ureidopentan-2-yl)amino)-3-(1H-indol-3-yl)-1-oxopropan-2-yl)-1-(N-(2-chloroacetyl)-N-methyl-L-phenylalanyl)piperidine-2-carboxamide] (ClAc-[NMeF][Pip]W[Cit]K(Biotinyl(3aR,4R,6aS))-NH2)	0.018	–	–	Ki (Pin1 (GST-Pin1); Ki quoted in figure legend, assay not named): 0.018 µM; pull down of Pin1 from lysate (FIG. 5B) (Pin1 [2]; TNBC MDA-MB-231 lysate, 500 nM and 1 μM): able to pull down Pin1; also recorded: pulled down Pin1; Lysate Target Engagement? (Pin1 [2]; TNBC-MDA-MB-231 lysate, biotin/dtb probes: pull down, others: competition, concentration under E5): Yes-(Biotin; Lysate Target Engagement? concentration stated for the engagement or pull down (Pin1 [2]; read with the E4 line of the same compound (complete, partial, probe pull down)): at 0.5 μM
